Data published in ChEMBL document CHEMBL2203213, “Cytotoxic indole diketopiperazines from the deep sea-derived fungus Acrostalagmus luteoalbus SCSIO F457” (Bioorg Med Chem Lett, 2012).

System: NCI-H460
Experiment: Cytotoxicity against human NCI-H460 cells by SRB method
Type: functional, cell-based

Question: How did the IC50 turn out when C[C@@H]1NC(=O)[C@H](Cc2c[nH]c3ccccc23)NC1=O was run?
Answer: > 100000 nM

Question: Which IC50 does the source give for O=C1N[C@@H](Cc2c[nH]c3ccccc23)C(=O)N[C@H]1CO here?
Answer: > 100000 nM

Question: C[C@H]1C(=O)N[C@@H](Cc2c[nH]c3ccccc23)C(=O)N1C was tested. Which IC50 did it give?
Answer: > 100000 nM

Question: For CN1C(=O)[C@]23SSS[C@@]1(C)C(=O)N2[C@H]1Nc2ccccc2[C@]1(c1c[nH]c2ccccc12)[C@@H]3O, which IC50 is on record?
Answer: 17800 nM

Question: With CN1C(=O)[C@]23SS[C@@]1(C)C(=O)N2[C@H]1Nc2ccccc2[C@]1(c1c[nH]c2ccccc12)[C@@H]3O as the molecule, how does the IC50 read?
Answer: 6570 nM

Question: For CN1C(=O)[C@]23SSS[C@]1(CO)C(=O)N2[C@H]1Nc2ccccc2[C@@]1(c1c[nH]c2ccccc12)[C@@H]3O, which IC50 is on record?
Answer: 5600 nM

Question: Which IC50 does the source give for CS[C@]1(Cc2c[nH]c3ccccc23)NC(=O)[C@](CO)(SC)N(C)C1=O [CHETOSEMINUDIN B] here?
Answer: > 100000 nM

Question: With CS[C@]1(CO)NC(=O)[C@](Cc2c[nH]c3ccccc23)(SC)NC1=O [CHETOSEMINUDIN C] as the molecule, how does the IC50 read?
Answer: > 100000 nM

Question: How did the IC50 turn out when CN1C(=O)[C@@]23C[C@@]4(c5c[nH]c6ccccc56)c5ccccc5N[C@@H]4N2C(=O)[C@]1(CO)SS3 [LUTEOALBUSIN A] was run?
Answer: 1150 nM

Question: For CN1C(=O)[C@@]23C[C@@]4(c5c[nH]c6ccccc56)c5ccccc5N[C@@H]4N2C(=O)[C@]1(CO)SSS3 [LUTEOALBUSIN B], which IC50 is on record?
Answer: 1310 nM

System: HepG2
Experiment: Cytotoxicity against human HepG2 cells by SRB method
Type: functional, cell-based

Question: How did the IC50 turn out when C[C@@H]1NC(=O)[C@H](Cc2c[nH]c3ccccc23)NC1=O was run?
Answer: > 100000 nM

Question: Which IC50 does the source give for O=C1N[C@@H](Cc2c[nH]c3ccccc23)C(=O)N[C@H]1CO here?
Answer: > 100000 nM

Question: C[C@H]1C(=O)N[C@@H](Cc2c[nH]c3ccccc23)C(=O)N1C was tested. Which IC50 did it give?
Answer: > 100000 nM

Question: Which IC50 does the source give for CN1C(=O)[C@]23SSS[C@@]1(C)C(=O)N2[C@H]1Nc2ccccc2[C@]1(c1c[nH]c2ccccc12)[C@@H]3O here?
Answer: 2030 nM

Question: Which IC50 does the source give for CN1C(=O)[C@]23SS[C@@]1(C)C(=O)N2[C@H]1Nc2ccccc2[C@]1(c1c[nH]c2ccccc12)[C@@H]3O here?
Answer: 530 nM

Question: How did the IC50 turn out when CN1C(=O)[C@]23SSS[C@]1(CO)C(=O)N2[C@H]1Nc2ccccc2[C@@]1(c1c[nH]c2ccccc12)[C@@H]3O was run?
Answer: 3520 nM

Question: CS[C@]1(Cc2c[nH]c3ccccc23)NC(=O)[C@](CO)(SC)N(C)C1=O [CHETOSEMINUDIN B] was tested. Which IC50 did it give?
Answer: > 100000 nM

Question: For CS[C@]1(CO)NC(=O)[C@](Cc2c[nH]c3ccccc23)(SC)NC1=O [CHETOSEMINUDIN C], which IC50 is on record?
Answer: > 100000 nM

Question: Which IC50 does the source give for CN1C(=O)[C@@]23C[C@@]4(c5c[nH]c6ccccc56)c5ccccc5N[C@@H]4N2C(=O)[C@]1(CO)SS3 [LUTEOALBUSIN A] here?
Answer: 910 nM

Question: Which IC50 does the source give for CN1C(=O)[C@@]23C[C@@]4(c5c[nH]c6ccccc56)c5ccccc5N[C@@H]4N2C(=O)[C@]1(CO)SSS3 [LUTEOALBUSIN B] here?
Answer: 1290 nM

System: MCF7
Experiment: Cytotoxicity against human MCF7 cells by SRB method
Type: functional, cell-based

Question: For C[C@@H]1NC(=O)[C@H](Cc2c[nH]c3ccccc23)NC1=O, which IC50 is on record?
Answer: > 100000 nM

Question: O=C1N[C@@H](Cc2c[nH]c3ccccc23)C(=O)N[C@H]1CO was tested. Which IC50 did it give?
Answer: > 100000 nM

Question: C[C@H]1C(=O)N[C@@H](Cc2c[nH]c3ccccc23)C(=O)N1C was tested. Which IC50 did it give?
Answer: > 100000 nM

Question: For CN1C(=O)[C@]23SSS[C@@]1(C)C(=O)N2[C@H]1Nc2ccccc2[C@]1(c1c[nH]c2ccccc12)[C@@H]3O, which IC50 is on record?
Answer: 650 nM

Question: For CN1C(=O)[C@]23SS[C@@]1(C)C(=O)N2[C@H]1Nc2ccccc2[C@]1(c1c[nH]c2ccccc12)[C@@H]3O, which IC50 is on record?
Answer: 230 nM

Question: How did the IC50 turn out when CN1C(=O)[C@]23SSS[C@]1(CO)C(=O)N2[C@H]1Nc2ccccc2[C@@]1(c1c[nH]c2ccccc12)[C@@H]3O was run?
Answer: 910 nM

Question: CS[C@]1(Cc2c[nH]c3ccccc23)NC(=O)[C@](CO)(SC)N(C)C1=O [CHETOSEMINUDIN B] was tested. Which IC50 did it give?
Answer: > 100000 nM

Question: For CS[C@]1(CO)NC(=O)[C@](Cc2c[nH]c3ccccc23)(SC)NC1=O [CHETOSEMINUDIN C], which IC50 is on record?
Answer: > 100000 nM

Question: Which IC50 does the source give for CN1C(=O)[C@@]23C[C@@]4(c5c[nH]c6ccccc56)c5ccccc5N[C@@H]4N2C(=O)[C@]1(CO)SS3 [LUTEOALBUSIN A] here?
Answer: 230 nM

Question: For CN1C(=O)[C@@]23C[C@@]4(c5c[nH]c6ccccc56)c5ccccc5N[C@@H]4N2C(=O)[C@]1(CO)SSS3 [LUTEOALBUSIN B], which IC50 is on record?
Answer: 250 nM

System: SF-268
Experiment: Cytotoxicity against human SF268 cells by SRB method
Type: functional, cell-based

Question: Which IC50 does the source give for C[C@@H]1NC(=O)[C@H](Cc2c[nH]c3ccccc23)NC1=O here?
Answer: > 100000 nM

Question: With O=C1N[C@@H](Cc2c[nH]c3ccccc23)C(=O)N[C@H]1CO as the molecule, how does the IC50 read?
Answer: > 100000 nM

Question: With C[C@H]1C(=O)N[C@@H](Cc2c[nH]c3ccccc23)C(=O)N1C as the molecule, how does the IC50 read?
Answer: > 100000 nM

Question: For CN1C(=O)[C@]23SSS[C@@]1(C)C(=O)N2[C@H]1Nc2ccccc2[C@]1(c1c[nH]c2ccccc12)[C@@H]3O, which IC50 is on record?
Answer: 2490 nM

Question: CN1C(=O)[C@]23SS[C@@]1(C)C(=O)N2[C@H]1Nc2ccccc2[C@]1(c1c[nH]c2ccccc12)[C@@H]3O was tested. Which IC50 did it give?
Answer: 730 nM

Question: With CN1C(=O)[C@]23SSS[C@]1(CO)C(=O)N2[C@H]1Nc2ccccc2[C@@]1(c1c[nH]c2ccccc12)[C@@H]3O as the molecule, how does the IC50 read?
Answer: 1040 nM

Question: CS[C@]1(Cc2c[nH]c3ccccc23)NC(=O)[C@](CO)(SC)N(C)C1=O [CHETOSEMINUDIN B] was tested. Which IC50 did it give?
Answer: > 100000 nM

Question: CS[C@]1(CO)NC(=O)[C@](Cc2c[nH]c3ccccc23)(SC)NC1=O [CHETOSEMINUDIN C] was tested. Which IC50 did it give?
Answer: > 100000 nM

Question: With CN1C(=O)[C@@]23C[C@@]4(c5c[nH]c6ccccc56)c5ccccc5N[C@@H]4N2C(=O)[C@]1(CO)SS3 [LUTEOALBUSIN A] as the molecule, how does the IC50 read?
Answer: 460 nM

Question: How did the IC50 turn out when CN1C(=O)[C@@]23C[C@@]4(c5c[nH]c6ccccc56)c5ccccc5N[C@@H]4N2C(=O)[C@]1(CO)SSS3 [LUTEOALBUSIN B] was run?
Answer: 590 nM
